This is an account of results in the NIST ThermoML archive (doi:10.1021/acs.jced.7b00445).

Series [1] in a line: Boiling temperature at pressure P. The note with it: 101.3 kPa; Liquid; Ebulliometric method (Recirculating still).
The conditions of series [2]: 298.15 K; 101.33 kPa; Liquid; Pycnometric method.
The nature of series [3]: refractive index (Na D-line) (dimensionless). The note with it: 298.15 K; 101.33 kPa; Liquid; Standard Abbe refractometry.

SMILES strings stand for the structures. Numbers after ± are expanded uncertainties.

For orientation: mass density means mass per unit of volume. Usually refractive index stands for the speed of light in vacuum divided by its phase velocity in the sample.

On to `CCC(C)OC(C)=O` (configuration not stated) [1-methylpropyl ethanoate], for which the “Boiling temperature at pressure P” value in series [1] came to 111.97 ± 0.16 °C. The mass density in series [2] turned out to be 867 ± 2 kg/m3. In addition, the refractive index in series [3] is on record as 1.3872 ± 0.0004.

Turning to `CCO` [ethanol], the “Boiling temperature at pressure P” value in series [1] was 78.27 ± 0.16 °C. The mass density in series [2] was determined as 786 ± 2 kg/m3. Also, the refractive index in series [3] was 1.3596 ± 0.0004.

On to `CCCO` [propan-1-ol], for which, in series [1], the “Boiling temperature at pressure P” value was found to be 97.17 ± 0.16 °C. Moreover, in series [2], the mass density stood at 802 ± 2 kg/m3. The refractive index in series [3] is on record as 1.3842 ± 0.0004.

Regarding `CC(C)O` [propan-2-ol], in series [1], the “Boiling temperature at pressure P” value came to 82.36 ± 0.16 °C. Also, the mass density in series [2] was determined as 782 ± 2 kg/m3. Further, the refractive index in series [3] is 1.3757 ± 0.0004.
